The supplement of paper PMC10307832

How the values were obtained:
Assay in all cases: relative viability (nuclei count vs DMSO), 5 days (fraction); higher = more cells survive
Selumetinib + OSI-027 = compound: Cn1cnc2c(F)c(Nc3ccc(Br)cc3Cl)c(C(=O)NOCCO)cc21 [Selumetinib] + COc1cccc2cc(-c3nc([C@H]4CC[C@H](C(=O)O)CC4)n4ncnc(N)c34)[nH]c12 [OSI-027] (partner 0.5 µM)
How it was run: (§1)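 A single step with final 0.05% Triton X-100, 1% formaldehyde and 1 ug/ml Hoechst fixed the cells and stained nuclei 5 days after treatment. Lung cancer cell lines in 1536-well plates had been treated by pin tool the day after seeding with one drug alone or a fixed anchor-drug dose plus five library-drug doses (not always all listed) in √10 steps, and nuclei were counted on 4× images. Relative viability is the ratio of nuclei in treated wells to nuclei in vehicle wells, taken as the median of duplicate plates.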

Venetoclax + Dasatinib = compound: CC1(C)CCC(CN2CCN(c3ccc(C(=O)NS(=O)(=O)c4ccc(NCC5CCOCC5)c([N+](=O)[O-])c4)c(Oc4cnc5[nH]ccc5c4)c3)CC2)=C(c2ccc(Cl)cc2)C1 [Venetoclax] + Cc1nc(Nc2ncc(C(=O)Nc3c(C)cccc3Cl)s2)cc(N2CCN(CCO)CC2)n1 [Dasatinib] (partner 0.075 µM)
How it was run: as §1

Selumetinib + Pictilisib = compound: Cn1cnc2c(F)c(Nc3ccc(Br)cc3Cl)c(C(=O)NOCCO)cc21 [Selumetinib] + CS(=O)(=O)N1CCN(Cc2cc3nc(-c4cccc5[nH]ncc45)nc(N4CCOCC4)c3s2)CC1 [Pictilisib] (partner 1 µM)
How it was run: as §1

Venetoclax + Trametinib = compound: CC1(C)CCC(CN2CCN(c3ccc(C(=O)NS(=O)(=O)c4ccc(NCC5CCOCC5)c([N+](=O)[O-])c4)c(Oc4cnc5[nH]ccc5c4)c3)CC2)=C(c2ccc(Cl)cc2)C1 [Venetoclax] + CC(=O)Nc1cccc(-n2c(=O)n(C3CC3)c(=O)c3c(Nc4ccc(I)cc4F)n(C)c(=O)c(C)c32)c1 [Trametinib] (partner 0.02 µM)
How it was run: as §1

Cell Line: UMC-11
- relative viability (Selumetinib + OSI-027; first compound 0.02 µM): 0.459
- relative viability (Selumetinib + OSI-027; first compound 0.06325 µM): 0.471
- relative viability (Selumetinib + OSI-027; first compound 0.2 µM): 0.379
- relative viability (Selumetinib + OSI-027; first compound 0.6325 µM): 0.45
- relative viability (Venetoclax + Dasatinib; first compound 0.01 µM): 0.45
- relative viability (Venetoclax + Dasatinib; first compound 0.03162 µM): 0.518
- relative viability (Venetoclax + Dasatinib; first compound 0.1 µM): 0.463
- relative viability (Venetoclax + Dasatinib; first compound 0.3162 µM): 0.505
- relative viability (Venetoclax + Dasatinib; first compound 1 µM): 0.491
- relative viability (Selumetinib + Pictilisib; first compound 0.02 µM): 0.827
- relative viability (Selumetinib + Pictilisib; first compound 0.06325 µM): 0.772
- relative viability (Selumetinib + Pictilisib; first compound 0.2 µM): 0.869
- relative viability (Selumetinib + Pictilisib; first compound 0.6325 µM): 0.922
- relative viability (Venetoclax + Trametinib; first compound 0.01 µM): 0.674
- relative viability (Venetoclax + Trametinib; first compound 0.03162 µM): 0.74
- relative viability (Venetoclax + Trametinib; first compound 0.1 µM): 0.713
- relative viability (Venetoclax + Trametinib; first compound 0.3162 µM): 0.664
- relative viability (Venetoclax + Trametinib; first compound 1 µM): 0.749
